Assay: not given

In order of rising logP:
1. CCOc1ccc(NC(=O)OCCF)cc1OCC  2.27
2. C#CCCOC(=O)Nc1ccc(OCC)c(OCC)c1  2.54
3. CCOc1ccc(NC(=O)OC(C)COC)cc1OCC (stereo unspecified)  2.56
4. CCOc1ccc(NC(=O)OC(C)CF)cc1OCC (stereo unspecified)  2.59
5. CCOc1ccc(NC(=O)OCCCl)cc1OCC  2.62
6. CCOc1ccc(NC(=O)OCCBr)cc1OCC  2.78
7. C#CCC(C)OC(=O)Nc1ccc(OCC)c(OCC)c1 (stereo unspecified)  2.86
8. CCOc1ccc(NC(=O)OC(C)CCl)cc1OCC (stereo unspecified)  2.97
9. C#CC(CC)OC(=O)Nc1ccc(OCC)c(OCC)c1 (stereo unspecified)  3.07
10. CCOc1ccc(NC(=O)OC(C)(C)C)cc1OCC  3.17
11. C=CCC(C)OC(=O)Nc1ccc(OCC)c(OCC)c1 (stereo unspecified)  3.37
12. C=CC(CC)OC(=O)Nc1ccc(OCC)c(OCC)c1 (stereo unspecified)  3.42
13. CCOc1ccc(NC(=O)OC(C)c2ccccc2)cc1OCC (stereo unspecified)  3.56
14. CCOc1ccc(NC(=O)OC(C)C(Cl)(Cl)Cl)cc1OCC (stereo unspecified)  3.96
15. CCCCCCC(C)OC(=O)Nc1ccc(OCC)c(OCC)c1 (stereo unspecified)  5.06

Assay: method code SF-AS, from DOI: 10.1584/jpestics.13.587

Work on `C#CC(C)OC(=O)Nc1ccc(OCC)c(OCC)c1` (stereo unspecified) yielded a logP of 2.68.

Source: the SangsterLogP compilation
